Measured values as given in paper PMC10247784, “Physiological activation of human and mouse bitter taste receptors by bile acids” (Communications Biology, 2023).
Where “and” joins values, the source holds several entries; their conditions need not be identical. Identical values can stand only once.

Biological target: T1, human TAS2R1 (Homo sapiens, UniProt Q9NYW7)
T1 construct: expressed in transfected cells; host or cells: HEK293T-Gα16gust44
T1 sequence (Q9NYW7 1-299): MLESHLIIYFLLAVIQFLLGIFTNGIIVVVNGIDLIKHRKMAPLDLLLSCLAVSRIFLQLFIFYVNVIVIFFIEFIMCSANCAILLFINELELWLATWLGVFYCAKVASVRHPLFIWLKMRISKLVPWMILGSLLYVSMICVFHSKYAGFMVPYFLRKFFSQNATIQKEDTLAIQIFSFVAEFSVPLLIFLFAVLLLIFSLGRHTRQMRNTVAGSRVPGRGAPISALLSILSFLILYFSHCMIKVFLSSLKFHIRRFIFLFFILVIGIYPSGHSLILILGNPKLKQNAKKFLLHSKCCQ
Experiment: Calcium imaging assay (FLIPR), HEK293T-Gα16gust44 cells transfected with human TAS2R1
Assay type: cell-based
Procedure, shortened: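 Calcium responses via FLIPR in receptor-transfected HEK293T-Gα16gust44 cells (Fluo-4-AM, 2.5 mM probenecid), after mock-signal subtraction and normalization to baseline and buffer (ΔF/F). Threshold concentration is the lowest dose differing from mock cells at p < 0.01 (Student's t-test), from three biological replicates in duplicate.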

Efficacy = maximal amplitude (ΔF/F) (TAS2R1, bile acids, mean): 0.1101
Efficacy (maximal amplitude ΔF/F), individual data points (TAS2R1, bile acids, single replicates, listed as DCA): 0.109 and 0.1181 and 0.1032
RLU (Time 0 s (second time grid)): 0 RLU
RLU (Time 2 s): 0.493 RLU
RLU (Time 4 s): 31.4027 RLU
RLU (Time 6 s): 3.521 RLU
RLU (Time 8 s): -1.537 RLU
RLU (Time 12 s): 14.8432 RLU
RLU (Time 14 s): 0.09676 RLU
RLU (Time 16 s): 17.8407 RLU
RLU (Time 18 s): -2.035 RLU
RLU (Time 18.781 s): -64.4563 RLU
RLU (Time 20.781 s): -74.4446 RLU
RLU (Time 22.781 s): -47.6337 RLU
RLU (Time 24.781 s): -3.248 RLU
RLU (Time 26.781 s): 25.7142 RLU
RLU (Time 28.781 s): 115.435 RLU
RLU (Time 30.781 s): 160.244 RLU
RLU (Time 32.781 s): 224.68 RLU
RLU (Time 34.781 s): 265.794 RLU
RLU (Time 36.781 s): 285.115 RLU
RLU (Time 38.781 s): 296.049 RLU
RLU (Time 40.781 s): 331.471 RLU
RLU (Time 42.781 s): 355.405 RLU
RLU (Time 44.781 s): 351.369 RLU
RLU (Time 46.781 s): 370.806 RLU
RLU (Time 48.781 s): 359.225 RLU
RLU (Time 50.781 s): 385.526 RLU
RLU (Time 52.781 s): 383.683 RLU
RLU (Time 54.781 s): 370.149 RLU
RLU (Time 56.781 s): 369.818 RLU
RLU (Time 58.781 s): 385.269 RLU
RLU (Time 60.781 s): 378.237 RLU
RLU (Time 62.781 s): 433.32 RLU
RLU (Time 64.781 s): 415.898 RLU
RLU (Time 66.781 s): 407.815 RLU
RLU (Time 68.781 s): 409.61 RLU
RLU (Time 70.781 s): 404.287 RLU
RLU (Time 72.781 s): 403.47 RLU
RLU (Time 74.781 s): 421.511 RLU
RLU (Time 76.781 s): 407.874 RLU
RLU (Time 78.781 s): 402.577 RLU
RLU (Time 80.781 s): 400.686 RLU
RLU (Time 82.781 s): 411.74 RLU
RLU (Time 84.781 s): 413.712 RLU
RLU (Time 86.781 s): 386.975 RLU
RLU (Time 88.781 s): 406.471 RLU
RLU (Time 90.781 s): 396.647 RLU
RLU (Time 92.781 s): 377.402 RLU
RLU (Time 94.781 s): 398.73 RLU
RLU (Time 96.781 s): 400.692 RLU
RLU (Time 98.781 s): 408.833 RLU
RLU (Time 100.781 s): 412.535 RLU
RLU (Time 102.781 s): 404.992 RLU
RLU (Time 104.781 s): 431.288 RLU
RLU (Time 106.781 s): 394.532 RLU
RLU (Time 108.781 s): 409.236 RLU
RLU (Time 110.781 s): 378.853 RLU
RLU (Time 112.781 s): 368.351 RLU
RLU (Time 114.781 s): 393.07 RLU
RLU (Time 116.781 s): 389.914 RLU
RLU (Time 118.781 s): 397.129 RLU
RLU (Time 120.781 s): 358.058 RLU
RLU (Time 122.781 s): 360.498 RLU
RLU (Time 124.781 s): 357.848 RLU
RLU (Time 126.781 s): 357.113 RLU
RLU (Time 128.781 s): 380.58 RLU
RLU (Time 130.781 s): 362.729 RLU
RLU (Time 132.781 s): 375.09 RLU
RLU (Time 134.781 s): 362.515 RLU
RLU (Time 136.781 s): 330.764 RLU
RLU (Time 137.547 s): 319.55 RLU
RLU (Time 143.547 s): 341.925 RLU
RLU (Time 149.547 s): 313.832 RLU
RLU (Time 155.547 s): 317.65 RLU
RLU (Time 161.547 s): 302.763 RLU
RLU (Time 167.547 s): 279.035 RLU
RLU (Time 173.547 s): 260.648 RLU
RLU (Time 179.547 s): 266.358 RLU
RLU (Time 185.547 s): 253.1 RLU
RLU (Time 191.547 s): 247.046 RLU
RLU (Time 197.547 s): 220.468 RLU
RLU (Time 203.547 s): 236.267 RLU
RLU (Time 209.547 s): 247.998 RLU
RLU (Time 215.547 s): 197.659 RLU
RLU (Time 221.547 s): 234.297 RLU
RLU (Time 227.547 s): 187.946 RLU
RLU (Time 233.547 s): 202.574 RLU
RLU (Time 239.547 s): 164.983 RLU
RLU (Time 245.547 s): 168.248 RLU
RLU (Time 293.547 s): 151.715 RLU
RLU (Time 299.547 s): 145.558 RLU
RLU (calcium trace, sheet TAS2R1, Time 305.547 s): 138.546 RLU
RLU (calcium trace, sheet TAS2R1, Time 311.547 s): 132.623 RLU
RLU (calcium trace, sheet TAS2R1, Time 317.547 s): 129.733 RLU
RLU (calcium trace, sheet TAS2R1, Time 323.547 s): 134.84 RLU
RLU (calcium trace, sheet TAS2R1, Time 329.547 s): 140.029 RLU
RLU (calcium trace, sheet TAS2R1, Time 335.547 s): 144.9 RLU
RLU (calcium trace, sheet TAS2R1, Time 341.547 s): 152.792 RLU
RLU (calcium trace, sheet TAS2R1, Time 347.547 s): 132.414 RLU
RLU (calcium trace, sheet TAS2R1, Time 353.547 s): 137.138 RLU
RLU (calcium trace, sheet TAS2R1, Time 359.547 s): 131.392 RLU
EC50 (calculated where receptor saturation was reached): 6.1 ± 0.6 µM
Activation threshold concentration TAS2R1 (lowest concentration with significantly increased fluorescence vs empty vector (p < 0.01)): 3 µM and 3.00 µM
Structure (SMILES): C[C@H](CCC(=O)O)[C@H]1CC[C@H]2[C@@H]3CC[C@@H]4C[C@H](O)CC[C@]4(C)[C@H]3C[C@H](O)[C@]12C [Deoxycholic Acid, deoxycholic acid]
